For five compounds, IC50 results are on record in ChEMBL document CHEMBL3046707, “Cheminformatic designing of de novo inhibitors to 3-methyl adenine DNA glycosylase I (LiTagA) from Leptospira interrogans serovar lai strain 56601” (Med Chem Res, 2013).

Molecules are shown by their SMILES.

This experiment has as its target T1, DNA-3-methyladenine glycosylase 1 (Escherichia coli (strain K12), UniProt P05100).
T1 sequence (P05100 whole entry): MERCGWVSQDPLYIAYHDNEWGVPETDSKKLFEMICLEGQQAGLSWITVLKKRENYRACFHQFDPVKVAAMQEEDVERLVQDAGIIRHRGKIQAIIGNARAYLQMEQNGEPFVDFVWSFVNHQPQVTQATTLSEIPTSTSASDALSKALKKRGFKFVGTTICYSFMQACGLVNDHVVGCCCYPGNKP
The experiment is described as follows: Inhibition of Escherichia coli DNA-3-methyladenine glycosylase 1.
One may read the IC50 as the point on the concentration scale where inhibition reaches its midpoint. A higher IC50 goes with weaker potency in that assay. In the case of `Nc1ncn(Cc2ccccc2)c2ncnc1-2` [3-BENZYLADENINE], half-maximal inhibition (IC50) was put at 0.4 µM.
`Cn1cnc(N)c2ncnc1-2` [3-METHYLADENINE] had an IC50 of 1500 µM.
For `CCn1cnc(N)c2ncnc1-2` [3-ETHYLADENINE] the value was 50 µM; for `CCCCn1cnc(N)c2ncnc1-2` [3-BUTYLADENINE], 2.3 µM.
The compound `CCCn1cnc(N)c2ncnc1-2` [3-PROPYLADENINE] gave an IC50 of 5 µM.
